Tests used:
Type in all cases: cell-based, human
H460 cells = assay: Accelerated senescence (SA-β-gal), H460; conditions: H460, IC90 doses, 72 and 120 h
Description: (§1) The accelerated senescence examination was based on the analysis of pH 6.0-dependent β-galactosidase (SA-β-gal) expression together with senescence-related morphology, such as enlarged and flattened cells. HCT116 and H460 cells were seeded in 60 mm plates containing microscope coverslips and treated with UAs for up to 120 h. After the treatment, coverslips with attached cells were moved to 35 mm dishes, washed twice with PBS and fixed with 2% glutaraldehyde and 0.2% formaldehyde for 5 min. The cells were then washed twice with PBS (pH 6.0) and incubated at pH 6.0 with X-gal (5-bromo-4-chloro-3-indolyl-β-D-[…], substrate for SA-β-gal) staining solution (1 mg/mL X-gal, 40 mmol/L citric acid/sodium phosphate, pH 6.0, 5 mmol/L potassium ferrocyanide, 5 mmol/L potassium ferricyanide, 150 mmol/L NaCl, 2 mmol/L MgCl2). Following overnight incubation at 37 °C, cells were washed twice with PBS and observed under a light microscopy (OLYMPUS BX60; magnification ×200).

HCT116 cells = assay: Accelerated senescence (SA-β-gal), HCT116; conditions: HCT116, IC90 doses, up to 120 h
Description: as §1, with “After the treatment, coverslips with attached cells were moved to 35 mm dishes, washed twice with PBS and fixed with 2% glutaraldehyde and 0.2% formaldehyde for 5 min.” left out

[1] = tested on: KRAS gene expression in HCT116 cells; assay: RT-PCR KRAS expression in HCT116; conditions: HCT116, IC90 doses, up to 120 h
Description: HCT116, H460, CCD 841 CoN and MRC-5 cells after treatment with UAs were collected, washed twice with ice-cold PBS and resuspended in […] of PBS. mRNA was isolated using High Pure RNA Isolation Kit according to the manufacturer’s instructions (Roche, Basel, Switzerland). Briefly, cells were lysed in lysis-binding buffer and transferred to a filter tube. Contaminating DNA was removed by 15 min incubation of the filter tube with DNase I solution. The filter tube was washed once with buffer I and twice with buffer II, and after centrifugation, total RNA was eluted using the elution buffer. RNA concentration was determined by NanoDrop One (Thermo Scientific); 1 µg of RNA was reverse transcribed using Transcriptor First Strand cDNA Synthesis Kit according to the manufacturer’s instructions (Roche) in 20 µL of reaction containing 1 µg of RNA, […] anchored-oligo(dT)18Primer, 8 mM MgCl2, 20 U of Protector RNase Inhibitor, deoxynucleotide mix (1 mM each) and 22 U of Transcriptor Reverse Transcriptase. The reverse transcription reaction was carried out for 30 min at 55 °C and stopped by heating to 85 °C for 5 min and placing on ice. The cDNA solution was stored at −20 °C until use. […] The relative expression level of MYC and KRAS was quantified using comparative method […]. The results were obtained from three independent experiments, each of which was analyzed at least twice.

| Structure (SMILES) | accelerated senescence (SA-β-gal blue staining) (H460 cells) | accelerated senescence (SA-β-gal blue staining) (HCT116 cells) | KRAS expression compared to untreated control [1] |
| --- | --- | --- | --- |
| CN(CCCNc1c2ccccc2nc2cccc([N+](=O)[O-])c12)CCCNc1ccc2ncn3c4ccccc4c(=O)c1c23 [Compound C-2028] | induced senescence to the highest extent |  |  |
| O=c1c2ccccc2n2cnc3ccc(NCCCN4CCN(CCCNc5c6ccccc6nc6cccc([N+](=O)[O-])c56)CC4)c1c32 [Compound C-2041] |  | a few cells with characteristic blue color were observed |  |
| Cc1ccc([N+](=O)[O-])c2c(NCCCN(C)CCCNc3ccc4ncn5c6ccccc6c(=O)c3c45)c3ccccc3nc12 [Compound C-2053] | least profound changes |  | significant difference |
